A word on the IC50: it is the midpoint of a concentration-inhibition curve. The low end stands for higher potency, the high end for lower potency.

7 compounds from patent publication US9896447B2, “TrkA kinase inhibitors, compositions and methods thereof” (MERCK SHARP & DOHME CORP., priority 2013, dated 2018) can be followed below.

Molecules are shown by their SMILES.

TrkA receptor, sequence (P04629 33-796): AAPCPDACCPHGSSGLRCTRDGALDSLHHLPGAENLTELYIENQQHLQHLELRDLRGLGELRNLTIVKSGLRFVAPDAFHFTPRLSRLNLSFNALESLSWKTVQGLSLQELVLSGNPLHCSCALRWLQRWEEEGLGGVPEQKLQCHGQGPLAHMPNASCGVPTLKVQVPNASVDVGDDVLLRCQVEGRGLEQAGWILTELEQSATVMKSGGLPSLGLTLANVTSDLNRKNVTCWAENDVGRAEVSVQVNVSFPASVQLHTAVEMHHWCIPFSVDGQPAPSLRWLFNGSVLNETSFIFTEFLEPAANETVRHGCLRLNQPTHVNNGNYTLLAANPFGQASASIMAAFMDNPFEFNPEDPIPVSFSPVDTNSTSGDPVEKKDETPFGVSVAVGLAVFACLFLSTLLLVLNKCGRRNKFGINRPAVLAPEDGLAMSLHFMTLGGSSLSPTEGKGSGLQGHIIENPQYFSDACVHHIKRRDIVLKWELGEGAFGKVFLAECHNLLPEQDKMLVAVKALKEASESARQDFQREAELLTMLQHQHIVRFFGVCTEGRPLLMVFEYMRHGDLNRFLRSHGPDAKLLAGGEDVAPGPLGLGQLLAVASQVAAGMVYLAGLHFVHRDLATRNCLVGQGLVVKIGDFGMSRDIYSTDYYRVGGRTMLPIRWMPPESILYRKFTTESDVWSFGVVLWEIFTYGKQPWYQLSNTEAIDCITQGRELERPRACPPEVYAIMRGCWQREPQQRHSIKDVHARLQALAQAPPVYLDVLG

The experiment concerns the target TrkA receptor (Homo sapiens (Human), UniProt P04629). The experiment can be described thus: DiscoverX PathHunter TrkA functional assay (U2OS cells, NGF stimulated). Type of experiment: cell-based. To be noted: U2OS cells expressing TrkA-Prolink and Shc1-EA; compound 1 hour, then EC80 of NGF for 3 hours; luminescence. As for the experimental part: TrkA functional activity was measured using a DiscoverX PathHunter assay. In this assay, U2OS cells are express TrkA receptor as a fusion with the weakly complementing fragment of B-galactosidase, which DiscoverX calls “Prolink (PK)”; additionally, Shc1 is fused with a larger fragment, which is called “Enzyme Acceptor (EA)”. Activation of the TrkA receptor, upon NGF addition, results in the kinase domain being phosphorylated, resulting in subsequent recruitment of Shc1-EA protein. That recruitment results in an active B-galactosidase enzyme that is detected by addition of a chemiluminescent substrate.
All reagents were purchased from DiscoverX, except for the receptor agonists (NGF, BDNF, NT3) which were purchased from Peprotech. Cells were expanded and frozen into cryovials (TrkA p75 @ passage 13, 1.5×10^7 cells/vial; TrkC p75 @ passage 11, 1.5×10^7 cells/vial in InVitrogen Recovery Cell Freezing media), and stored in the vapor phase of liquid nitrogen, and thawed immediately before use. Thawed cells were added to a 384-well plate (BD Falcon 384-well white/clear, TC surface 120 uL assay plates (353963), 20 uL of 0.375e6 cells/mL=>7500 cells/well), and allowed to incubate overnight. Compound (10 mM starting dose: 202.5 nL compound yielding 0.81% DMSO final in total assay volume and starting doses 81 uM) was added the following morning and allowed to incubate on cells for 1 hour. Then, 5 uL EC80 of agonist (NGF for TrkA; BDNF for TrkB; NT3 for TrkC) was added and allowed to incubate for 3 hours at room temperature. DiscoverX PathHunter detection reagent is added (12 uL to plate and components diluted in parts as per kit instructions) and the plate is further incubated for 1 hour in the dark. The plate is read via luminescence on the Perkin Elmer Envision.
`Cc1onc(-c2ccccc2)c1NC(=O)NCc1ccccc1C(F)(F)F` [Compound 14, 1-(5-methyl-3-phenylisoxazol-4-yl)-3-[2-(trifluoromethyl)benzyl]urea] showed an IC50 of 0.35 µM. `O=C(Nc1c(-c2ccccc2)nc2ccccn12)Nc1c(-n2cccn2)nc2ccccn12` [Compound 29, 1-(2-phenylimidazo[1,2-a]pyridin-3-yl)-3-[2-(1H-pyrazol-1-yl)imidazo[1,2-a]pyridin-3-yl]urea] showed an IC50 of 1.4 µM.

`Cc1cc(NC(=O)Nc2cc(Br)ccn2)n(-c2ccccc2)n1` [Compound 8, 1-(4-bromopyridin-2-yl)-3-(3-methyl-1-phenyl-1H-pyrazol-5-yl)urea] had an IC50 of 3 µM. To `Cc1cc(NC(=O)Nc2ccccn2)n(-c2ccccc2)n1` [Compound 10, 1-(3-methyl-1-phenyl-1H-pyrazol-5-yl)-3-pyridin-2-ylurea] belongs 1.8 µM; to `O=C(Nc1cccnc1-c1ccccc1)Nc1c(-c2ccccc2)nc2ccccn12` [Compound 24, 1-(2-phenylimidazo[1,2-a]pyridin-3-yl)-3-(2-phenylpyridin-3-yl)urea], 0.45 µM; to `Cc1nc(-c2ccccc2)c(NC(=O)Nc2sc(C)nc2-c2ccccc2)s1` [Compound 35, 1,3-bis(2-methyl-4-phenyl-1,3-thiazol-5-yl)urea], 0.61 µM. To `COc1ccc(NC(=O)Nc2cc(C)nn2-c2ccccc2)nc1` [Compound 11, 1-(5-methoxypyridin-2-yl)-3-(3-methyl-1-phenyl-1H-pyrazol-5-yl)urea] belongs 3.4 µM.
